Laboratory results from patent US12648946B2, “Combination of antibody-pyrrolobenzodiazepine derivative conjugate and PARP inhibitor” (DAIICHI SANKYO COMPANY, LIMITED, priority 2019, dated 2026).
pIC50: −log10 of the molar value. Where two headings read alike, the source gives them in different places.

Experiments:
[1] = test system: human lung cancer cell line Calu-6; assay: Cell growth inhibition test (1); assay type: cell-based; details: for pIC50: Calu-6, 144 h
Description: (§1) The human lung cancer cell line Calu-6 obtained from ATCC (American Type Culture Collection) was used for evaluation. Cells were prepared with MEM containing 10% fetal bovine serum (GE Healthcare), MEM Non-Essential Amino Acids Solution (Thermo Fisher Scientific), and Sodium Pyruvate (Thermo Fisher Scientific) (Thermo Fisher Scientific; hereinafter, referred to as EMEM medium) to reach 1.25×10^4 cells/mL, and 80 μL portions of them were added into a 96-well cell culture microplate. After addition of the cells, the cells were cultured at 37° C. and 5% CO2 overnight.
(§2) On the next day, 10 μL portions of pyrrolobenzodiazepine derivative A, B, or C diluted with EMEM medium to 100 pM, 50 pM, 25 pM, 12.5 pM, 6.25 pM, 3.13 pM, 1.56 pM, or 0.78 pM were added to the microplate. To each well without any pyrrolobenzodiazepine derivative, 10 μL of EMEM medium was added. Further, 10 μL portions of olaparib prepared with EMEM medium to reach 2 μM were added to the microplate. To each well without olaparib, 10 μL of EMEM medium was added. Thereafter, the microplate was cultured at 37° C. and 5% CO2 for 6 days. After culturing, the microplate was taken out of the incubator, and left to stand at room temperature for 30 minutes. CellTiter-Glo Luminescent Cell Viability Assay (Promega Corporation) in an amount equivalent to that of the culture solution was added, and stirred using a plate mixer. The microplate was left to stand at room temperature for 10 minutes, and thereafter the amount of emission was measured by using a plate reader (PerkinElmer).
(§3) Cell survival rates in wells with derivative A, B, or C were calculated by using the following formula.
(§4) [formula] • a: Mean value of amounts of emission from wells with derivative A, B, or C • b: Mean value of amounts of emission from wells with medium • IC50 values were calculated by using the following formula.
(§5) [formula] • a: Concentration of derivative A, B, or C, a • b: Concentration of derivative A, B, or C, b • c: Cell survival rate when derivative A, B, or C of concentration a was added • d: Cell survival rate when derivative A, B, or C of concentration b was added • a and b satisfy a>b at points sandwiching a cell survival rate of 50%.
Cell survival rates in wells with derivative A, B, or C added together with 2 μM olaparib were calculated by using the following formula.
[formula] a: Mean value of amounts of emission from wells with derivative A, B, or C added together with 2 μM olaparib • b: Mean value of amounts of emission from wells with 2 μM olaparib • IC50 values were calculated by using the following formula.
as §5, with “and 2 μM olaparib were” for “was”

[2] = test system: human pharyngeal cancer cell line FaDu; assay: Cell growth inhibition test (3); assay type: cell-based; details: 144 h
Description: as §1, with “pharyngeal” for “lung”, “FaDu” for “Calu-6”, “6.25×10^3” for “1.25×10^4”
as §2, with “talazoparib” for “olaparib”, “nM” for “μM”, “talazoparib,” for “olaparib,”
as §3, §4, §5
Cell survival rates in wells with derivative A, B, or C added together with 2 nM talazoparib were calculated by using the following formula.
[formula] • a: Mean value of amounts of emission from wells with derivative A, B, or C added together with 2 nM talazoparib • b: Mean value of amounts of emission from wells with 2 nM talazoparib • IC50 values were calculated by using the following formula.
as §5, with “and 2 nM talazoparib were” for “was”

`COc1ccc(C2=CN3C(=O)c4cc(OC)c(OCCCCCOc5cc6c(cc5OC)C(=O)N5CC7(CC7)C[C@H]5C=N6)cc4NC[C@@H]3C2)cc1` [derivative A, (11a′S)-7′-Methoxy-8′-[(5-{[(11aS)-7-methoxy-2-(4-methoxyphenyl)-5-oxo-5,10,11,11a-tetrahydro-1H-pyrrolo[2,1-c][1,4]benzodiazepin-8-yl]oxy}pentyl)oxy]-1′,11a′-dihydro-5′H-spiro[cyclopropane-1,2′-pyrrolo[2,1-c][1,4]benzodiazepine]-5′-one] gave a pIC50 ([1]; read-out: IC50, growth-suppressing effect, added singly, Calu-6, 6 days) of 11.17, a pIC50 ([1]; read-out: IC50, growth-suppressing effect, added together with 2 μM olaparib, Calu-6, 6 days) of 11.37 and a pIC50 ([2]; read-out: IC50, growth-suppressing effect, added singly, FaDu, 6 days (test 3)) of 11.11. For the same compound, the pIC50 ([2]; read-out: IC50, growth-suppressing effect, added together with 2 nM talazoparib, FaDu, 6 days) was 11.33.

`O=C(c1cc(Cc2n[nH]c(=O)c3ccccc23)ccc1F)N1CCN(C(=O)C2CC2)CC1` [olaparib, reference compound] was tested, and the inhibition at 2 µM ([1]; 144 h, 2 μM olaparib alone, Calu-6, 6 days) was less than 10%.

Work on `Cn1ncnc1[C@H]1c2n[nH]c(=O)c3cc(F)cc(c23)N[C@@H]1c1ccc(F)cc1` [talazoparib] yielded an inhibition at 0.002 µM ([2]; 2 nM talazoparib alone, 6 days) of less than 10%.
